The text below walks through data of ChEMBL document CHEMBL4765493, “Berberine Directly Targets the NEK7 Protein to Block the NEK7-NLRP3 Interaction and Exert Anti-inflammatory Activity” (J Med Chem, 2021).

The nature of experiment [1]: Inhibition of LPS + nigericin-induced IL-1beta secretion in PMA-differentiated human THP-1 cells at 20 uM incubated for 24 hrs by ELISA. It counts as functional. In general terms: In an ELISA, binding on a coated surface is turned into a signal by an enzyme label.
Experiment [2] has as its target T1, Serine/threonine-protein phosphatase PGAM5, mitochondrial (Homo sapiens) (UniProt Q96HS1).
T1 sequence (whole entry): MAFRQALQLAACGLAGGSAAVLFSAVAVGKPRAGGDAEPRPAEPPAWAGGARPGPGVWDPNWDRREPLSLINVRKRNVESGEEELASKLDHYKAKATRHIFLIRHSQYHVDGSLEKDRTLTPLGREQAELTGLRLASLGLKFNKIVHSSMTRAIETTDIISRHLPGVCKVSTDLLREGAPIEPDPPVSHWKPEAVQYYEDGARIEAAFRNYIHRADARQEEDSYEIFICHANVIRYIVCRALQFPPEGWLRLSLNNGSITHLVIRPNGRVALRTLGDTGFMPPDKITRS
Kind of experiment: Binding affinity to […] in PMA-differentiated human THP-1 cells incubated for 2 hrs by SDS-PAGE and LC-MS/MS analysis. It is filed as cell-based.

For experiment [3], the target named is Nicotinamide/nicotinic acid mononucleotide adenylyltransferase 1 (Homo sapiens) (UniProt Q9HAN9). The experiment is described as follows: Binding affinity to NMNAT1 in PMA-differentiated human THP-1 cells incubated for 2 hrs by SDS-PAGE and LC-MS/MS analysis. It is filed as cell-based.
The target of experiment [4] is T2, Uridine-cytidine kinase 2 (Homo sapiens) (UniProt Q9BZX2).
T2 sequence (whole entry): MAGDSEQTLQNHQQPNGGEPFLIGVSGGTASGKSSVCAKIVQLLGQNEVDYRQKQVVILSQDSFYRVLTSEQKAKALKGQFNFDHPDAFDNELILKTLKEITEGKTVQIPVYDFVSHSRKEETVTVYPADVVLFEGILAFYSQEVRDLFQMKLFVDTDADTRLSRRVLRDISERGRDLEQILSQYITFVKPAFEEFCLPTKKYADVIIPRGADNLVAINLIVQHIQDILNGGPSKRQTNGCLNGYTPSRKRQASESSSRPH
Kind of experiment: Binding affinity to UCK2 in PMA-differentiated human THP-1 cells incubated for 2 hrs by SDS-PAGE and LC-MS/MS analysis. It counts as cell-based.

The target of experiment [5] is 28S rRNA (cytosine-C(5))-methyltransferase (Homo sapiens) (UniProt Q96P11). Kind of experiment: Binding affinity to NSUN5 in PMA-differentiated human THP-1 cells incubated for 2 hrs by SDS-PAGE and LC-MS/MS analysis. It is filed as cell-based.
Experiment [6] has as its target T3, Serine/threonine-protein kinase Nek7 (Homo sapiens, UniProt Q8TDX7). The experiment is described as follows: Binding affinity to NEK7 in PMA-differentiated human THP-1 cells incubated for 2 hrs by SDS-PAGE and LC-MS/MS analysis. It counts as cell-based.
Experiment [7] concerns the target DIMT1 dimethyladenosine transferase 1 (Homo sapiens) (UniProt Q9UNQ2). Kind of experiment: Binding affinity to DIM1 in PMA-differentiated human THP-1 cells incubated for 2 hrs by SDS-PAGE and LC-MS/MS analysis.
The target in experiment [8] is T3, Serine/threonine-protein kinase Nek7. Kind of experiment: Binding affinity to NEK7 in PMA-differentiated human THP-1 cells incubated for 2 hrs by immunoblot analysis. It is filed as cell-based. For orientation: A western blot detects proteins with antibodies after separation by electrophoresis.
Experiment [9] has the same target. Kind of experiment: Binding affinity to human recombinant NEK7 incubated for 2 hrs by pull down assay. As to conditions: THP-1.
The target is the same in experiment [10]. Kind of experiment: Binding affinity to human recombinant NEK7 incubated for 2 hrs in presence of BBR by pull down assay.
The target is the same in experiment [11]. The experiment is described as follows: Binding affinity to human recombinant NEK7 incubated for 2 hrs by pull down assay relative to control. As to conditions: THP-1.
For the next experiment, the system named is HEK293. Kind of experiment: Inhibition of NEK7-NLRP3 interaction (unknown origin) expressed in HEK293 cells at 10 uM incubated for 24 hrs by Co-IP assay. It counts as cell-based. As to conditions: Homo sapiens.

Calls of active or inactive are those of the source. The calls are words filed in the database; no cut-off is given here.

T3 sequence (Q8TDX7 whole entry, looked up): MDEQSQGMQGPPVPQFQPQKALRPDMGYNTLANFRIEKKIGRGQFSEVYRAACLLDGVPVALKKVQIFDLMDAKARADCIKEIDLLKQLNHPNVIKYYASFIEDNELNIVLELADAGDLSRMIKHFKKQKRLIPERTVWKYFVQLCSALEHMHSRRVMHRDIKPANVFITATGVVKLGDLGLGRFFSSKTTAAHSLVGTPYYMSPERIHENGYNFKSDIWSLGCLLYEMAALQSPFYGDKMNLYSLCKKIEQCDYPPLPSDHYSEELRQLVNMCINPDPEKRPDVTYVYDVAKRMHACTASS
Sequence of 28S rRNA (cytosine-C(5))-methyltransferase (Homo sapiens) (Q96P11 whole entry): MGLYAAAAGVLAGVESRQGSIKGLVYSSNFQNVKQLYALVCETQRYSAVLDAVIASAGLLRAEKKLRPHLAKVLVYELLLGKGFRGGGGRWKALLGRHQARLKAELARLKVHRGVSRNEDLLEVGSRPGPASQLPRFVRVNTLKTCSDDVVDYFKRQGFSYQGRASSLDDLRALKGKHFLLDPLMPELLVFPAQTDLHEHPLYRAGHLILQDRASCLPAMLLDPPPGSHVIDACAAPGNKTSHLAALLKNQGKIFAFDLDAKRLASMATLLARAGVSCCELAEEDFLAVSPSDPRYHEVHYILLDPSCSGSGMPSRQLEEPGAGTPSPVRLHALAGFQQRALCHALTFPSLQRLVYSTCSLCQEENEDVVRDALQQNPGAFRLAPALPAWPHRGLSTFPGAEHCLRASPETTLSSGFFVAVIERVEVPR
Sequence of DIMT1 dimethyladenosine transferase 1 (Homo sapiens) (Q9UNQ2 whole entry, looked up): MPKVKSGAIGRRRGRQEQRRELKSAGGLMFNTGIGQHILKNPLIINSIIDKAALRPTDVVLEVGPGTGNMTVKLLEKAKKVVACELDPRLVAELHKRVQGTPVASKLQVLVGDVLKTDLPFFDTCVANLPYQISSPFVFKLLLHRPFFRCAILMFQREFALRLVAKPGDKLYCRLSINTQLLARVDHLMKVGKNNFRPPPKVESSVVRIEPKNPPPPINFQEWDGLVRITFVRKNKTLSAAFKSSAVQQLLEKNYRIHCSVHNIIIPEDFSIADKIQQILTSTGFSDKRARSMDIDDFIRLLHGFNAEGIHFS
Sequence of Nicotinamide/nicotinic acid mononucleotide adenylyltransferase 1 (Homo sapiens) (Q9HAN9 whole entry): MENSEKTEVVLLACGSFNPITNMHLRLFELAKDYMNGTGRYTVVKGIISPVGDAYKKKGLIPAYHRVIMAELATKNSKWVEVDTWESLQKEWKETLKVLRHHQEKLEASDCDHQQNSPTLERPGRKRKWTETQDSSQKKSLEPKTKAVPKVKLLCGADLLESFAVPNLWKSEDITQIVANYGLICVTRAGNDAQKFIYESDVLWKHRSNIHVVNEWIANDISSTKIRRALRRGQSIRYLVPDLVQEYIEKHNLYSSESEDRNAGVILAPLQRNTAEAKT

In general, inhibition refers to the relative decrease from the control value, in per cent. For `COc1c(OCCOCCNC(=O)CCCC[C@@H]2SC[C@@H]3NC(=O)N[C@@H]32)ccc2cc3[n+](cc12)CCc1cc2c(cc1-3)OCO2`, the inhibition at 20 µM in [1] was 26%.

On to `COc1cc2c(cc1OCCCNC(=O)CCCC[C@@H]1SC[C@@H]3NC(=O)N[C@@H]31)CC[n+]1cc3c(OC)c(OC)ccc3cc1-2`, for which the inhibition at 20 µM in [1] was -49%.

Regarding `COc1cc2c(cc1OCCOCCOCCNC(=O)CCCC[C@@H]1SC[C@@H]3NC(=O)N[C@@H]31)CC[n+]1cc3c(OC)c(OC)ccc3cc1-2`, the inhibition at 20 µM in [1] was -79%.

Consider `COc1c(OCCCCCNC(=O)CCCC[C@@H]2SC[C@@H]3NC(=O)N[C@@H]32)ccc2cc3[n+](cc12)CCc1cc2c(cc1-3)OCO2`, for which, in experiment [1], the inhibition at 20 µM turned out to be 73%.

Consider `COc1cc2c(cc1OC)-c1cc3ccc(OC)c(OCCOCCNC(=O)CCCC[C@@H]4SC[C@@H]5NC(=O)N[C@@H]54)c3c[n+]1CC2`, for which the inhibition at 20 µM in experiment [1] was found to be 65%.

`C#CCOCCOc1cc(C2(C(F)(F)F)N=N2)ccc1C(=O)NCCOCCOCCOc1ccc2cc3[n+](cc2c1OC)CCc1cc2c(cc1-3)OCO2`: the inhibition at 20 µM in [1] is 80%.

Regarding `COc1cc2c(cc1OCCOCCNC(=O)CCCC[C@@H]1SC[C@@H]3NC(=O)N[C@@H]31)CC[n+]1cc3c(OC)c(OC)ccc3cc1-2`, in experiment [1], the inhibition at 20 µM stood at 75%.

With `COc1cc2c(cc1OC)-c1cc3ccc(OC)c(OCCOCCOCCNC(=O)CCCC[C@@H]4SC[C@@H]5NC(=O)N[C@@H]54)c3c[n+]1CC2`, the inhibition at 20 µM in experiment [1] is -78%. For the same compound, the result in [2], in experiment [3], in experiment [4], in experiment [5], in [6] and in experiment [7] was inactive.

`COc1ccc2cc3[n+](cc2c1OCCCCCNC(=O)CCCC[C@@H]1SC[C@@H]2NC(=O)N[C@@H]21)CCc1cc2c(cc1-3)OCO2`: the inhibition at 20 µM in experiment [1] was -2%.

For `COc1cc2c(cc1OC)-c1cc3ccc(OC)c(OCCCCCNC(=O)CCCC[C@@H]4SC[C@@H]5NC(=O)N[C@@H]54)c3c[n+]1CC2`, in [1], the inhibition at 20 µM was determined as 77%.

For the compound `COc1c(OCCCNC(=O)CCCC[C@@H]2SC[C@@H]3NC(=O)N[C@@H]32)ccc2cc3[n+](cc12)CCc1cc2c(cc1-3)OCO2`, the inhibition at 20 µM in experiment [1] is 38%.

For the compound `COc1ccc2cc3[n+](cc2c1OCCCNC(=O)CCCC[C@@H]1SC[C@@H]2NC(=O)N[C@@H]21)CCc1cc2c(cc1-3)OCO2`, the inhibition at 20 µM in experiment [1] is -92%.

Turning to `COc1ccc2cc3[n+](cc2c1OCCOCCNC(=O)CCCC[C@@H]1SC[C@@H]2NC(=O)N[C@@H]21)CCc1cc2c(cc1-3)OCO2`, the inhibition at 20 µM in [1] was found to be 10%.

In the case of `COc1cc2c(cc1OCCCCCNC(=O)CCCC[C@@H]1SC[C@@H]3NC(=O)N[C@@H]31)CC[n+]1cc3c(OC)c(OC)ccc3cc1-2`, the inhibition at 20 µM in [1] was 70%.

As for `COc1cc2c(cc1OC)-c1cc3ccc(OC)c(OCCCNC(=O)CCCC[C@@H]4SC[C@@H]5NC(=O)N[C@@H]54)c3c[n+]1CC2`, the inhibition at 20 µM in experiment [1] was determined as 80%.

In the case of `COc1c(OCCOCCOCCNC(=O)CCCC[C@@H]2SC[C@@H]3NC(=O)N[C@@H]32)ccc2cc3[n+](cc12)CCc1cc2c(cc1-3)OCO2`, the inhibition at 20 µM in experiment [1] turned out to be 83%. In addition, the outcome in experiment [2], in [3], in experiment [4], in experiment [5], in experiment [6] and in experiment [8] was Active. Besides, the result in experiment [9] and in experiment [7] was Active. Moreover, the result in experiment [10] was inactive. In addition, the Activity result in [11] was “Dose-dependent effect”.

As for `COc1ccc2cc3[n+](cc2c1OCCOCCOCCNC(=O)CCCC[C@@H]1SC[C@@H]2NC(=O)N[C@@H]21)CCc1cc2c(cc1-3)OCO2`, the inhibition at 20 µM in [1] was determined as 16%.

In the case of `COc1cc2c(cc1OC)-c1cc3ccc(OC)c(OC)c3c[n+]1CC2`, the inhibition entry in the experiment with HEK293 was “inactive”.
